Values quoted from earlier work as cited in article PMC5944028, “Nonclinical and clinical pharmacological characterization of the potent and selective cathepsin K inhibitor MIV-711” (Journal of Translational Medicine, 2018).
pIC50: −log10 of the molar value.

Tests used:
urinary CTX-II = details: postmenopausal women with osteoporosis, 12 months; cited from earlier work
[1] = human, weekly dose of 50 mg, cited from earlier work

Row | Structure (SMILES) | Reduction of urinary CTX-II (urinary CTX-II) [%] | mean plasma AUC0–24h [1] [µM·h] | pIC50 ([1]; read-out: trough plasma IC50)
1 | C[C@@H]1CS/C(=N\NC(=O)C(=O)[C@@H](NC(=O)C2CCCCCC2)C2CCOCC2)N1C [ONO-5334, reference compound] | 50 |  | 
2 | CC(C)(F)C[C@H](N[C@@H](c1ccc(-c2ccc(S(C)(=O)=O)cc2)cc1)C(F)(F)F)C(=O)NC1(C#N)CC1 [odanacatib] |  | 6 to 7 | 7.22 to 7.30
